Marks after values point to notes of the source that are not given here.
What was measured:
[1] = patients who received the drug; cited from earlier work
neutrophils = assay: Number of neutrophils in brain sections (myeloperoxidase immunohistochemistry) after 2 h middle cerebral artery occlusion and reperfusion; assay type: in vivo, rat; details: for number of neutrophils, +0.7 mm to the bregma / number of neutrophils, +1.7 mm to the bregma / number of neutrophils, −0.3 mm to the bregma: 1000 mg/kg i.p. twice
Protocol: (§1) One of the causes for organ dysfunction resulting from ischemia is reperfusion injury after recovery of blood flow, and the inflammatory response is an important factor which induces reperfusion injury. Therefore, as an index of inflammation subsequent to reperfusion of blood flow, the numbers of neutrophils and macrophages were determined.
(§2) Thirty-two male Wistar rats weighting about 300 g were divided into 4 groups with 8 rats in each. The middle cerebral artery of all rats was occluded for two hours, as shown in Example 1. […] Subsequently, 12 or 24 hours after recovery of blood flow, the brain was taken out after perfusion with physiological saline. Frozen sections having 6 μm thick was prepared at a distance of about 1.7 mm rostral to the bregma, i.e. anterior fontanel, 0.7 mm rostral to the bregma toward the rostral side, and 0.3 mm caudal to the bregma.
After observing these frozen sections by light microscopy, the total numbers of neutrophils on the ischemic and non-ischemic sides were obtained rseparately. Also, frozen sections obtained from identical rats were subjected to immunochemistry with an antibody for ED1 which is a cell surface marker of macrophages. […] Therefore, with regard to ED1-positive cells, the difference in the number of cells between the ischemic and non-ischemic sides was calculated. The difference was determined as the number of macrophages and compared between each corresponding group.

[2] = system: pyramidal neurons in the hippocampal CA-1 region; details: administration prior to transient ischemia (5 or 10 minutes forebrain ischemia), rat; cited from earlier work
[3] = system: neurons in the rat striatum; details: administered 4 times: immediately, 6, 24 and 48 hours after 15 minutes of transient ischemia, rats; cited from earlier work
[4] = system: cerebral infarction after 2 hours middle cerebral artery occlusion in male Wistar rats; assay: Size of cerebral infarction (triphenyltetrazolium chloride staining, planimetry) 24 h after reperfusion following 2 h middle cerebral artery occlusion; assay type: in vivo, rat; details: for size of cerebral infarction, Cerebral cortex / size of cerebral infarction, Striatum / size of cerebral infarction, Total: mean ± SD
From the text: These rats were anesthetized with a gas mixture of 2% halothane, 49% oxygen and 49% laughing gas, i.e. N2O, and kept under spontaneous breathing. Subsequently, a median incision was made in the neck of the rat placed on its back, and the right common carotid artery was exposed. After an intraperitoneal injection of 100 units of heparin, the root of the right middle cerebral artery was occluded by inserting 4·0 nylon thread coated with silicone into the right internal carotid artery from the bifurcation of the internal and external carotid arteries. The tip of the nylon thread was placed 18 mm from the bifurcation. After suture of the incision of the skin, the rats were allowed to recover from anesthesia. During surgery, an electronic thermometer was inserted into the rectum, and the temperature of the rectum was maintained at 37.0±0.1° C. with a lamp.
Five minutes before reperfusion of blood flow, the rats were anesthetized again. After opening the skin suture, the cerebral blood flow was resumed by removing the nylon thread by 5 mm 2 hours after middle cerebral artery occlusion. […] After recovery from anesthesia, the rats were allowed to access food and water freely.
Twenty-four hours after recovery of blood flow, sodium pentobarbital was intraperitoneally administered to the rats for anesthesia. Subsequently, the brain was perfused with heparinized-physiological saline, and the rat was decapitated. The brain was quickly taken out, and rinsed in physiological saline. The brain was sliced coronally between the optic chiasm and the caucal edge of the mammillary body at a thickness of 2 mm. These brain slices were subjected to incubation with 2% triphenyltetrazolium chloride in phosphate buffer (0.1 mol/L, pH 7.4) at 37° C. As a result, due to the action of dehydrogenase present in viable cells, triphenyltetrazolium chloride was reduced, and the tissue was stained in dark red. On the other hand, the dead tissue in the infarcted area was not stained. These brain slices were preserved in phosphate-buffered formalin overnight. […] The obtained size of cerebral infarction was subjected to analysis of variance and the Scheffe test.
The values in the table (unit: mm^3) indicate the size of cerebral infarction as the “mean ±standard deviation”, while “*” denotes a case in which it was significant versus the control group by p<0.05, and “**” denotes a case in which it was significant versus the control group by p<0.01.

[5] = system: ED1-positive cells (macrophages); assay: Number of ED1-positive cells / macrophages in brain sections (ED1 immunohistochemistry) after 2 h middle cerebral artery occlusion and reperfusion; assay type: in vivo, rat; details: for number of ED1-positive cells: versus control; for number of ED1-positive cells, Differences (number of macrophages), +0.7 mm to the bregma / number of ED1-positive cells, Differences (number of macrophages), +1.7 mm to the bregma / number of ED1-positive cells, Differences (number of macrophages), −0.3 mm to the bregma: difference between ischemic and non-ischemic sides; for number of ED1-positive cells, Differences (number of macrophages), +0.7 mm to the bregma / number of ED1-positive cells, Differences (number of macrophages), +1.7 mm to the bregma / number of ED1-positive cells, Differences (number of macrophages), −0.3 mm to the bregma / number of ED1-positive cells, +0.7 mm to the bregma / number of ED1-positive cells, +1.7 mm to the bregma / number of ED1-positive cells, −0.3 mm to the bregma: 1000 mg/kg i.p. twice
Protocol: as §1, §2
After observing these frozen sections by light microscopy, the total numbers of neutrophils on the ischemic and non-ischemic sides were obtained rseparately. Also, frozen sections obtained from identical rats were subjected to immunochemistry with an antibody for ED1 which is a cell surface marker of macrophages. ED1 is considered to exist in cells besides macrophages, and in fact, ED1-positive cells were also observed on the non-ischemic side in the experiment. However, as in Table 2, neutrophils were not observed on non-ischemia side, where inflammation was not observed. Therefore, with regard to ED1-positive cells, the difference in the number of cells between the ischemic and non-ischemic sides was calculated. The difference was determined as the number of macrophages and compared between each corresponding group. In Tables 2 and 3, “*” denotes a case in which significant differences versus the control group were observed by p<0.05 by Fisher's PLSD (protected least significant difference) tests, and “**” denotes a case in which significant difference was observed by p<0.01.

[6] = 12 hours after onset of reperfusion, ischemic side
[7] = 12 hours after onset of reperfusion, non-ischemic side
[8] = 24 hours after onset of reperfusion, ischemic side
[9] = 24 hours after onset of reperfusion, non-ischemic side
[10] = administration after ischemia, 200 mg/kg i.p. immediately and 6 h after reperfusion
[11] = administration after ischemia, 500 mg/kg i.p. immediately and 6 h after reperfusion
[12] = administration after ischemia, 1000 mg/kg i.p. immediately and 6 h after reperfusion
[13] = administration before ischemia, 1000 mg/kg i.p. once 10 min before occlusion, 24 h after reperfusion
[14] = 12 hours after the onset of reperfusion
[15] = 12 hours after the onset of reperfusion, ischemic side
[16] = 12 hours after the onset of reperfusion, non-ischemic side
[17] = 24 hours after the onset of reperfusion
[18] = 24 hours after the onset of reperfusion, ischemic side
[19] = 24 hours after the onset of reperfusion, non-ischemic side

For `CC1=NN(c2ccccc2)C(=O)C1` [edaravone], which “patients who showed abnormal values in laboratory tests on the liver function” value [1] is on record?
The value was 21.4%.

For `N[C@@H](Cc1c[nH]cn1)C(=O)O` [histidine], which neutrophil infiltration (neutrophils; 12 hours after ischemia, histidine-administration group versus control) is on record?
Its neutrophil infiltration is “significantly suppressed”.

What about the “number of neutrophils, +0.7 mm to the bregma” value (“number of neutrophils, +0.7 mm” for short) (neutrophils; [6]) of the same compound?
The value was 128 ± 82.

And the “number of neutrophils, +1.7 mm to the bregma” value (“number of neutrophils, +1.7 mm” below) (neutrophils; [6])?
Its value is 101 ± 80.

What about the “number of neutrophils, −0.3 mm to the bregma” value (from here on “number of neutrophils, −0.3 mm”) (neutrophils; [6]) of the same compound?
The value was 106 ± 54.

What about the “number of neutrophils, +0.7 mm” value (neutrophils; [7]) of the same compound?
The value was 0 ± 0.

What about the “number of neutrophils, +1.7 mm” value (neutrophils; [7]) of the same compound?
The value was 1 ± 2.

What about the “number of neutrophils, −0.3 mm” value (neutrophils; [7]) of the same compound?
Its value is 0 ± 0.

And the “number of neutrophils, +0.7 mm” value (neutrophils; [8])?
Its value is 250 ± 169.

What about the “number of neutrophils, −0.3 mm” value (neutrophils; [8]) of the same compound?
The value was 287 ± 162.

What about the “number of neutrophils, +0.7 mm” value (neutrophils; [9]) of the same compound?
Its value is 0 ± 0.

What about the “number of neutrophils, +1.7 mm” value (neutrophils; [9]) of the same compound?
Its value is 1 ± 2.

And the “number of neutrophils, −0.3 mm” value (neutrophils; [9])?
Its value is 0 ± 0.

What about the “programmed death (delayed neuronal death) of neurons” value [2] of the same compound?
The value was “depressed”.

What about the “neuronal death 7 days after ischemia caused by apoptosis” value [3] of the same compound?
The value was “depressed”.

What about the “infarcted volume compared with that of the control group” value (“infarcted volume compared with that” below) ([4]; 200 mg/kg immediately after reperfusion and 6 hours thereafter) of the same compound?
The value was 71%.

And the “infarcted volume compared with that” value ([4]; 500 mg/kg immediately after reperfusion and 6 hours thereafter)?
Its value is 39%.

What about the “infarcted volume compared with that” value ([4]; 1000 mg/kg immediately after reperfusion and 6 hours thereafter) of the same compound?
The value was 7%.

What about the “size of cerebral infarction, Cerebral cortex” value (“size … Cerebral cortex” for short) [4, 10] of the same compound?
The value was 78.8 ± 52.3 mm^3.

And the “size of cerebral infarction, Striatum” value [4, 10]?
The value was 34.3 ± 23.0 mm^3.

What about the “size of cerebral infarction, Total” value [4, 10] of the same compound?
Its value is 113.2 ± 74.0 mm^3.

What about the “size … Cerebral cortex” value [4, 11] of the same compound?
Its value is 39.9 ± 44.5 mm^3.

What about the “size of cerebral infarction, Striatum” value [4, 11] of the same compound?
Its value is 19.1 ± 24.4** mm^3.

What about the “size of cerebral infarction, Total” value [4, 11] of the same compound?
The value was 59.0 ± 63.4* mm^3.

What about the “size … Cerebral cortex” value [4, 12] of the same compound?
The value was 7.5 ± 13.3** mm^3.

And the “size of cerebral infarction, Striatum” value [4, 12]?
The value was 3.3 ± 12.8** mm^3.

What about the “size of cerebral infarction, Total” value [4, 12] of the same compound?
Its value is 10.7 ± 14.5** mm^3.

And the “size … Cerebral cortex” value [4, 13]?
Its value is 81.4 ± 26.0 mm^3.

And the “size of cerebral infarction, Striatum” value [4, 13]?
The value was 34.4 ± 16.0 mm^3.

And the “size of cerebral infarction, Total” value [4, 13]?
The value was 115.8 ± 39.2 mm^3.

And the “size of infarction compared with that of the control group” value ([4]; pre-ischemic histidine 1000 mg/kg administration group)?
Its value is “no significant difference”.

And the “number of ED1-positive cells” value ([5]; 12 hours after ischemia for 2 hours, cross section at +0.7 mm rostral to the bregma)?
Its value is “significantly decreased”.

What about the “number of ED1-positive cells, Differences (number of macrophages), +0.7 mm to the bregma” value [5, 14] of the same compound?
Its value is 123 ± 100*.

And the “number of ED1-positive cells, Differences (number of macrophages), +1.7 mm to the bregma” value [5, 14]?
The value was 135 ± 101.

What about the “number of ED1-positive cells, Differences (number of macrophages), −0.3 mm to the bregma” value [5, 14] of the same compound?
The value was 92 ± 107.

What about the “number of ED1-positive cells, +0.7 mm to the bregma” value [5, 15] of the same compound?
Its value is 450 ± 190.

And the “number of ED1-positive cells, +1.7 mm to the bregma” value [5, 15]?
The value was 366 ± 149.

And the “number of ED1-positive cells, −0.3 mm to the bregma” value [5, 15]?
The value was 363 ± 186.

And the “number of ED1-positive cells, +0.7 mm to the bregma” value [5, 16]?
Its value is 328 ± 113.

And the “number of ED1-positive cells, +1.7 mm to the bregma” value [5, 16]?
Its value is 238 ± 95.

What about the “number of ED1-positive cells, −0.3 mm to the bregma” value [5, 16] of the same compound?
Its value is 309 ± 72.

What about the “number of ED1-positive cells” value ([5]; 24 hours after ischemia, all cross sections) of the same compound?
The value was “significant decreases”.

What about the “number of ED1-positive cells, Differences (number of macrophages), +0.7 mm to the bregma” value [5, 17] of the same compound?
The value was 141 ± 104*.

What about the “number of ED1-positive cells, Differences (number of macrophages), +1.7 mm to the bregma” value [5, 17] of the same compound?
The value was 125 ± 72*.

And the “number of ED1-positive cells, Differences (number of macrophages), −0.3 mm to the bregma” value [5, 17]?
The value was 190 ± 93*.

What about the “number of ED1-positive cells, +0.7 mm to the bregma” value [5, 18] of the same compound?
Its value is 264 ± 101.

And the “number of ED1-positive cells, +1.7 mm to the bregma” value [5, 18]?
Its value is 230 ± 57.

What about the “number of ED1-positive cells, −0.3 mm to the bregma” value [5, 18] of the same compound?
The value was 340 ± 107.

And the “number of ED1-positive cells, +0.7 mm to the bregma” value [5, 19]?
Its value is 124 ± 34.

What about the “number of ED1-positive cells, +1.7 mm to the bregma” value [5, 19] of the same compound?
Its value is 104 ± 28.

What about the “number of ED1-positive cells, −0.3 mm to the bregma” value [5, 19] of the same compound?
Its value is 150 ± 46.

Reference: patent publication US20100113544A1, “Suppressant for cerebral infarction attributed to long-time ischemia” (Ehime University, priority 2004, published 2010)
